Data: article doi:10.1101/2024.09.04.611242v3 (bioRxiv, 2024)

Experiments:
PC12 cells [1] = experiment: Toxicity of shuttles on PC12 cells; assay type: cell-based; settings: 5 x 10^4 PC12 cells, 24h, 100% DMEM media
Cu(II)Aβ1-16 = Cu(II)Aβ1-16 (Homo sapiens, UniProt P05067); experiment: Retrieval of Cu; assay type: binding; settings: 25°C; for time to complete retrieval of Cu(II) from Aβ1-16: HEPES buffer / 10% DMEM, shuttle 5 µM, Aβ1-16 10 µM, Cu(II) 5 µM; for Kinetics of Cu(II) transfer from Aß1-16 to shuttle, DMEM 10%: shuttle=Cu(II)=5 µM, Aß1-16=10 µM, 10% DMEM, NBD emission 545 nm, n=3
Selective Cu = assay type: binding; settings: for Average half-time of Cu(II) withdrawal, Cu(II), D/F / Average half-time of Cu(II) withdrawal, Cu(II), DMEM 10%: Cu(II) alone, Cu(II)=shuttle=5 µM, 25°C, NBD emission at 545 nm, n=3; for Average half-time of Cu(II) withdrawal, Cu(II), D/F: D/F 100%; for Cu(II) withdrawn from D/F media over the measurement duration: D/F media spiked with 5 µM Cu(II), shuttle 5 µM, NBD emission followed for 5h
microglial cells in OHSC = experiment: Microglia proliferation and activation in OHSC; assay type: cell-based, CD1 mice; settings: 10 µM Cu(II)=shuttle, 20 µM Aβ1-40/42, 48h, Iba1 staining, n=3
[2] = Reduction/release of shuttle-bound Cu; assay type: physicochemical; settings: 5 mM GSH, HEPES 100 mM pH 7.4
PC12 cells [3] = experiment: Rescue of PC12 cells from Cu; assay type: cell-based; settings: 5 µM shuttle, 10 µM Cu(II)Aβ1-16 0.5:1, AscH-, 10% DMEM, 24h, MTT, n=3

Compound | toxicity to PC12 cells (in words) (PC12 cells [1]) | time to complete retrieval of Cu(II) from Aβ1-16 (Cu(II)Aβ1-16) | Kinetics of Cu(II) transfer from Aß1-16 to shuttle, DMEM 10% (Cu(II)Aβ1-16) | Average half-time of Cu(II) withdrawal, Cu(II), D/F (Selective Cu) | Average half-time of Cu(II) withdrawal, Cu(II), DMEM 10% (Selective Cu) | Cu(II) withdrawn from D/F media over the measurement duration (Selective Cu) | effect on Cu(II)(Aβ1-40/42)-induced microglial cell proliferation in OHSC (microglial cells in OHSC) | half-time of reduction of shuttle-bound Cu(II) by GSH (in words) [2] | rescue of Cu(II)Aβ1-16-induced toxicity in PC12 cells (PC12 cells [3])
CN=C([S-])N/N=C/C=N/NC([S-])=NC.[Cu+2] [Cu(II)GTSM] | toxic to PC12 cells | – | – | – | – | – | – | – | –
CNC(=S)NN=CC=NNC(=S)NC [GTSM, glyoxal-bis(4-methylthiosemicarbazonato)] | toxic at nanomolar concentration | – | – | – | – | – | – | – | –
H2N-His-Dap-His-αR5W4^NBD [HDapH-αR5W4^NBD] | – | less than two minutes | 14.5 ± 3.8 s | < 1 min | < 1 min | completely withdrew | reduced microglial cell proliferation | only a few minutes | reversed
H2N-Dap-His-His-αR5W4^NBD [DapHH-αR5W4^NBD] | – | less than two minutes | 47.9 ± 9.2 s | 4.3 ± 0.6 min | < 1 min | > 80% | reduced microglial cell proliferation | only a few minutes | reversed
